Measurements as given in paper PMC10287695, “Non-covalent inhibitors of thioredoxin glutathione reductase with schistosomicidal activity in vivo” (Nature Communications, 2023).
“Also recorded” adds a separate entry of the source. Where two headings read alike, the source gives them in different places.

Legend:
[1] = Reactivity with GSH or N-Boc protected methyl ester of selenocysteine (LCMS); format: physicochemical; conditions: up to 120 h
Method: Dimethyl bis(N-tert-butoxycarbonyl)-L-selenocystine was synthesized as reported previously. (N-tert-butoxycarbonyl)-L-selenocysteine methyl ester was prepared in situ[86] in methanol or phosphate buffer. Compound 2 was added to the solution of (N-tert-butoxycarbonyl)-L-selenocysteine methyl ester in either methanol or phosphate buffer and incubated for 40 min, 24 h, and 120 h under N2 gas balloon. Additional amounts of NaBH4 were added at 12 h and 96 h to maintain the reducing conditions. Aliquots taken from methanol solution at each of the time points were concentrated in vacuo, mixed with water, and extracted with ethyl acetate. The organic layer was separated, concentrated in vacuo, re-dissolved in methanol and analyzed by LCMS. Aliquots taken from the phosphate buffer solution were extracted with ethyl acetate. The resulting organic layer was separated and concentrated in vacuo. The residue was re-dissolved in methanol and analyzed by LCMS. […] No additional spots were detected by TLC as well.
Covalent TGR inhibitor TRi-1 was used as a positive control for the reaction with (N-tert-butoxycarbonyl)-L-selenocysteine methyl ester. The reactivity of TRi-1 was tested similarly as described above for compound 2.

[2] = test system: S. mansoni juvenile worms; parameters: method as in PMID 15013742; conditions: cited from earlier work
adult worms = test system: adult worms; parameters: method as in PMID 15013742; conditions: overnight exposure followed by 8 days culture; cited from earlier work
juvenile worms in mice = conditions: cited from earlier work

SMILES	reaction with thiol or selenol groups in GSH or protected selenocysteine [1]	LD50 of PZQ against ex vivo S. mansoni juvenile worms [2]	LD50 against adult worms, female (adult worms)	LD50 against adult worms, male (adult worms)	reduction in worm burden (juvenile worms in mice; mice, 500 mg/kg, 21 d.p.i.)	reduction in worm burden (juvenile worms in mice; mice, 500 mg/kg, 28 d.p.i.)	reduction in worm burden (juvenile worms in mice; mice, 1,000 mg/kg, 21 d.p.i.)	reduction in worm burden (juvenile worms in mice; mice, 1,000 mg/kg, 28 d.p.i.)	ED50 (juvenile worms in mice; mice, doses titrated 28 d.p.i.)
CCc1ccccc1-c1nc(CN[C@@H]2C[C@@H]3C[C@H]([C@H]2C)C3(C)C)c(C)o1 [Compound 2]	No additional peaks were detected; also recorded: no reaction								
O=C(C1CCCCC1)N1CC(=O)N2CCc3ccccc3C2C1 (stereo not drawn) [PZQ, praziquantel]		413 µM	5.1 µM	1.5 µM	0%	0%	50%	17%	2,456 mg/kg
